Values of other authors as cited in patent US20130338178A1, “SIRTUIN MODULATORS AS INHIBITORS OF CYTOMEGALOVIRUS” (THE TRUSTEES OF PRINCETON UNIVERSITY, priority 2011, published 2013).

Experiments:
[1] = biological target: T1, SIRT1 (Homo sapiens, UniProt Q96EB6); conditions: SIRT1 preincubated with NAD+ and compound, means ± SD, cited from earlier work
T1 sequence (Q96EB6 1-747): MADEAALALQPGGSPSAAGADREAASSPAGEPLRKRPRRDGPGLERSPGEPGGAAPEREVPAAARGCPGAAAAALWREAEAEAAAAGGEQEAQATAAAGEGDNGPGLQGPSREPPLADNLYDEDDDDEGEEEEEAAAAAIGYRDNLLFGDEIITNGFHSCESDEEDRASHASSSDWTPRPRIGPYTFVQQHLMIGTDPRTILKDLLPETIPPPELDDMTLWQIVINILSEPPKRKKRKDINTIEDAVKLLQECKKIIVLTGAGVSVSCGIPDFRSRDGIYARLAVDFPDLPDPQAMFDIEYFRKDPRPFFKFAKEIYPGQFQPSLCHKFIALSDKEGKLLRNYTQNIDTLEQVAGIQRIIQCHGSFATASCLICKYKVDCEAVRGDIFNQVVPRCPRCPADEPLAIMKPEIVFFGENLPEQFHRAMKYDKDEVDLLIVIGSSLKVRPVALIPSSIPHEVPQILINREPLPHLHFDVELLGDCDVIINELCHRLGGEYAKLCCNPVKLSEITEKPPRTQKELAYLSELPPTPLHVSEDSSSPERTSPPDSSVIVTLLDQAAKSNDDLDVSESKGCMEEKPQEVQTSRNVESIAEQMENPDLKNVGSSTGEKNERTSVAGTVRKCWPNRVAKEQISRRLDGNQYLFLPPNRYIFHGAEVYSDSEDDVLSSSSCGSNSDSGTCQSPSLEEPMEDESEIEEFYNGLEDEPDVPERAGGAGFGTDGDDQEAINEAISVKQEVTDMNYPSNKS

[2] = biological target: T2, SIRT2 (Homo sapiens, UniProt Q8IXJ6); conditions: cited from earlier work
T2 sequence (Q8IXJ6 1-389): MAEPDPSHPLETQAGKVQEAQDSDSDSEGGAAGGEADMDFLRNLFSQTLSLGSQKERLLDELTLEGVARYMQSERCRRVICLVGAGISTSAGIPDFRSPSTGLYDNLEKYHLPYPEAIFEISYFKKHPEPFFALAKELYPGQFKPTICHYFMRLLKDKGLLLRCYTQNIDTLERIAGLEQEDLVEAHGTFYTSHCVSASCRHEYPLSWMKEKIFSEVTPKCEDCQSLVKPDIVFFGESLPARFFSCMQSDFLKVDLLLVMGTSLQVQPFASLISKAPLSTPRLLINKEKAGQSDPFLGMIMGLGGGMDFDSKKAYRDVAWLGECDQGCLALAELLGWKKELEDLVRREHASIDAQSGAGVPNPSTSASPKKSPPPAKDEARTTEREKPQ

[3] = test system: sirtuin; conditions: cited from earlier work; for % Activity at 50 μM / % Activity at 500 μM: residual enzyme activity relative to control with no inhibitor; for IC50: analogs of compound 12

Row | Structure (SMILES) | inhibition at 300 μM (%) [1] | IC50 [1] | also measured
1 | CCC(=O)CC(=O)NCCCC[C@H](NC(=O)OCc1ccccc1)C(=O)Nc1ccccc1 [2w] | 67 ± 1.2% | 88 ± 3.9 µM | –
2 | COc1ccc2c(c1)Cc1cc(/N=[N+](\[O-])c3ccc4c(c3)Cc3cc(OC)ccc3-4)ccc1-2 [CSC32] | – | – | Sirt2 effect [2]: inhibition
3 | O=C(Cc1ccc(C(F)(F)F)cc1)NCCCC[C@H](NC(=O)OCc1ccccc1)C(=O)Nc1ccccc1 [2g] | 41 ± 20% | > 300 µM | –
4 | CN(C)C(=O)CC(=O)NCCCC[C@H](NC(=O)OCc1ccccc1)C(=O)Nc1ccccc1 [2u] | 20 ± 1.3% | > 300 µM | –
5 | CNC(=O)CC(=O)NCCCC[C@H](NC(=O)OCc1ccccc1)C(=O)Nc1ccccc1 [2t] | 24 ± 2.5% | > 300 µM | –
6 | O=C(Cc1ccc([N+](=O)[O-])cc1)NCCCC[C@H](NC(=O)OCc1ccccc1)C(=O)Nc1ccccc1 [2i] | 51 ± 17% | – | –
7 | C=C(C(C)c1ccc2c(c1)Cc1ccccc1-2)C(C)c1ccc2c(c1)Cc1ccccc1-2 (stereo not drawn) [CSC7] | – | – | Sirt2 effect [2]: inhibition
8 | CC(=O)CC(=O)NCCCC[C@H](NC(=O)OCc1ccccc1)C(=O)Nc1ccccc1 [2v] | 45 ± 6.0% | > 300 µM | –
9 | O=C(CC(=O)OCC(F)(F)F)NCCCC[C@H](NC(=O)OCc1ccccc1)C(=O)Nc1ccccc1 [2q] | 94 ± 1.5% | 15 ± 3.1 µM | –
10 | CCc1ccc(OCCCC(=O)Oc2ccc3c(C)cc(=O)oc3c2)cc1 [compound 6802623] | – | – | % Activity at 50 μM [3]: 86%; % Activity at 500 μM [3]: 53%
11 | COC(=O)CC(=O)NCCCC[C@H](NC(=O)OCc1ccccc1)C(=O)Nc1ccccc1 [2j] | 92 ± 1.2% | 35 ± 5.2 µM | –
12 | CS(=O)(=O)CC(=O)NCCCC[C@H](NC(=O)OCc1ccccc1)C(=O)Nc1ccccc1 [2e] | 56 ± 1.9% | – | –
13 | N#CCC(=O)NCCCC[C@H](NC(=O)OCc1ccccc1)C(=O)Nc1ccccc1 [2a] | 50 ± 7.9% | – | –
14 | COc1ccc(OCCCC(=O)Oc2ccc3c(C)cc(=O)oc3c2)cc1 [compound 6959933] | – | – | % Activity at 50 μM [3]: 93%; % Activity at 500 μM [3]: 35%
15 | Cc1ccc(OCCCC(=O)Oc2ccc3c(C)cc(=O)oc3c2)c(C)c1 [compound 7988362] | – | – | % Activity at 50 μM [3]: 90%; % Activity at 500 μM [3]: 51%
16 | CCCCOC(=O)CC(=O)NCCCC[C@H](NC(=O)OCc1ccccc1)C(=O)Nc1ccccc1 [2n] | 64 ± 6.1% | 73 ± 3.2 µM | –
17 | O=C1c2ccccc2C(=O)N1CCBr [compound 91032] | – | – | IC50 [3]: No inhibition
18 | C(=C1c2ccccc2-c2ccccc21)c1ccc(N=C2c3ccccc3-c3ccccc32)cc1 [CSC2] | – | – | Sirt2 effect [2]: inhibition
19 | COC/C=C\C1c2cc(O)c(OC)cc2CCN1C (stereo not drawn) [7-129] | – | – | % Activity at 50 μM [3]: 97%; % Activity at 500 μM [3]: 94%
20 | CC(C)C(=O)CCN1C(=O)c2ccccc2C1=O [compound 04265] | – | – | IC50 [3]: No inhibition
21 | Cc1ccc2c(c1)CCC1C2CCC2(C)C(OC(=O)CCc3ccccc3)CCC12 (stereo not drawn) [CSC8] | – | – | Sirt2 effect [2]: inhibition
22 | O=C(CC(=O)OCC1CC1)NCCCC[C@H](NC(=O)OCc1ccccc1)C(=O)Nc1ccccc1 [2p] | 93 ± 1.2% | 14 ± 2.6 µM | –
23 | CCOC(=O)CC(=O)NCCCC[C@H](NC(=O)OCc1ccccc1)C(=O)Nc1ccccc1 [2k] | 91 ± 1.3% | 3.9 ± 0.29 µM | –
24 | [H]/N=C(\c1ccccc1Cc1cccc2ccccc12)c1ccc(C)c2ccccc12 [CSC24] | – | – | Sirt2 effect [2]: inhibition
25 | O=C(CC(=O)OCc1ccccc1)NCCCC[C@H](NC(=O)OCc1ccccc1)C(=O)Nc1ccccc1 [2r] | 71 ± 4.3% | 96 ± 4.8 µM | –
26 | Cc1cc(=O)oc2cc(OC(=O)CCCOc3ccc(Cl)cc3Cl)ccc12 [compound 5366302] | – | – | % Activity at 50 μM [3]: 90%; % Activity at 500 μM [3]: 68%
27 | Cc1cc(N2CCOCC2)nc2ccc(Cc3ccc4nc(N5CCOCC5)cc(C)c4c3)cc12 [CSC4] | – | – | Sirt2 effect [2]: inhibition
28 | OC(c1ccccc1)c1ccc(C(F)(F)F)cc1 (stereo not drawn) [compound 97211] | – | – | % Activity at 50 μM [3]: 100%; % Activity at 500 μM [3]: 81%
